The test system of data set [1] is H9C2 cells. Put plainly: Toxicity on normal H9C2 cells (MTT assay). Format: cell-based. As to conditions: MTT; for viability at 6.25 µM / viability at 12.5 µM / viability at 25 µM / viability at 50 µM: H9C2 cells, read-out: Survival Rate (%); for IC50: normal H9C2 cells. As to the method: To study cytotoxicity on normal cells, the cytotoxicity of compounds against normal H9C2 cells were tested.
(§1) The SH-SY5Y ([…]) and H9C2 ([…]) cell lines were obtained from the Chinese Academy of Medical Sciences and Peking Union Medical College. All of the cell lines were grown in dulbecco’s modified eagle medium (DMEM) with 10% (v/v) fetal bovine serum (FBS) and 1% (v/v) penicillin/streptomycin (Thermo Technologies, New York, NY, USA), under a humidified atmosphere containing 5% CO2 at 37 °C. The baicalein derivatives were dissolved in DMSO (Sigma, St. Louis, MO, USA) and added at various concentrations to the cell culture.
(§2) The protective effect of these compounds was evaluated on SH-SY5Y and H9C2 cell lines via the MTT method. The cells growing in the logarithmic phase were cultured in 96-well plates at a density 3 × 10^3 cells/well and incubated for 24 h. Then each well was treated with the required concentrations (50 µM concentrations, 25 µM concentrations, 12.5µM concentrations, 6.25 µM concentrations, and 3.125 µM concentrations) of baicalein derivatives, and incubated 36 h at 37 °C with 5% CO2. After that, the cells were induced by H2O2 (final concentration, […]) for 12 h. Control-differentiated cells were injected with new growth media at equal amounts. Before […] MTT solution (5 mg/mL) was added to each well, the cell culture fluid was discarded, and […] fresh cell culture fluid was added. The plate was incubated for a further 4 h at 37 °C. The cell supernatant medium was removed carefully, without disturbing the attached cells, and formazan crystals were solubilized by adding 150 μL DMSO into each well. The absorbance was measured at 490 nm with a plate reader (BIORAD 550 spectrophotometer, Bio-rad Life Science Development Ltd., Beijing, China). H2O2 was dissolved in DMEM medium. Wells without drugs were used as blanks. The EC50 values were defined as the concentrations that causes the maximum effect of 50%; IC50 values were defined as the concentration of compound which gives 50% growth inhibition, and were calculated using the GraphPad Prism 5. The proliferation rates of damaged SH-SY5Y cells were calculated in the following formula (1): [OD490 (compound) − OD490 (CoCl2)]/[OD490 (NGF) − OD490 (CoCl2)] × 100%(1) The EC50 values were using the equation −pEC50 = log Cmax − log 2 × (ΣP − 0.75 + 0.25Pmax + 0.25Pmin)(2) where Cmax is the maximum concentration, ΣP is the sum of proliferation rates, Pmax is the maximum value of the proliferation rate, and Pmin is the minimum value of the proliferation rate. Cell viability was expressed as a percentage of the control.
The inhibition rate was calculated in the following equation: % inhibition = 1 − (Sample group OD/Control group OD) × 100%(3)
Background: Tetrazolium dyes change colour on reduction, which living cells bring about.

Data set [2] deals with injured SH-SY5Y cells. Put plainly: Protective effect against tert-butyl hydroperoxide-induced SH-SY5Y neurotoxicity cells (MTT assay).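 As to Proliferation Rate (%): 0% equals CoCl2-injured cells and 100% equals NGF-treated cells.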 Format: cell-based. The following applies: Homo sapiens; for viability at 3.125 µM / viability at 6.25 µM / viability at 12.5 µM / viability at 25 µM / viability at 50 µM: injured SH-SY5Y cells, read-out: Proliferation Rate (%); for EC50: tert-butyl hydroperoxide-induced SH-SY5Y neurotoxicity, read-out: EC50 for protecting injured SH-SY5Y cells. As to the method:
The protective effects of baicalein derivatives in vitro was evaluated against tert-butyl, hydroperoxide-induced, SH-SY5Y neurotoxicity cells using an MTT assay. In addition, their toxicity evaluation was tested on normal H9C2 cells. The resulting proliferation rates (%) at different concentrations, as well as their 50% effective concentrations (EC50) for protecting damaged SH-SY5Y cells of the baicalein amino acid derivatives, are summarized in Table 2.
as §1, §2

Data set [3] deals with H9C2 cells. As to the kind of experiment: Toxicity on normal H9C2 cells (MTT assay). The format is cell-based. The following applies: read-out: Survival Rate (%).

`CCC(C)C(NC(=O)OCc1ccccc1)C(=O)Oc1cc2oc(-c3ccccc3)cc(=O)c2c(O)c1O` (stereo not drawn) [Compound 7, 5,6-dihydroxy-4-oxo-2-phenyl-4H-chromen-7-yl 2-{[(benzyloxy)carbonyl]amino}-3-methyl-pentanoate] yielded a melting point of 155.7 °C. Moreover, in data set [1], the viability at 6.25 µM was 152%, the viability at 12.5 µM was found to be 147%, the viability at 25 µM was 145% and the viability at 50 µM worked out at 139%. The compound also had an IC50 in data set [1] of over 100 µM. Moreover, in data set [2], the viability at 3.125 µM is 63.6%, the viability at 6.25 µM was determined as 69.7%, the viability at 12.5 µM turned out to be 79.8% and the viability at 25 µM worked out at 79.8%. For the same compound, in data set [2], the viability at 50 µM was found to be 72.2% and the concentration for a half-maximal effect (EC50) stood at 5.24 µM. Moreover, in data set [3], the viability at 100 µM was 124%.

In turn, `CC(C)C(NC(=O)OCc1ccccc1)C(=O)Oc1c(O)cc2oc(-c3ccccc3)cc(=O)c2c1O` (stereo not drawn) [Compound 1, 5,7-dihydroxy-4-oxo-2-phenyl-4H-chromen-6-yl 2-{[(benzyloxy)carbonyl]amino}-3-methylbutanoate] came in with a melting point of 199.7 °C. In addition, in data set [1], the viability at 6.25 µM is 270%, the viability at 12.5 µM worked out at 260%, the viability at 25 µM was 231% and the viability at 50 µM amounted to 216%. This compound also had an IC50 in data set [1] of over 100 µM. Also, in data set [2], the viability at 3.125 µM was found to be 56%, the viability at 6.25 µM was determined as 84.3%, the viability at 12.5 µM turned out to be 81.8% and the viability at 25 µM is 67.3%. Further, in data set [2], the viability at 50 µM was determined as 54.9% and the EC50 worked out at 6.07 µM. For the same compound, in data set [3], the viability at 100 µM turned out to be 204%.

Regarding `CC(NC(=O)OC(C)(C)C)C(=O)Oc1c(O)cc2oc(-c3ccccc3)cc(=O)c2c1O` (stereo not drawn) [Compound 14, 5,7-dihydroxy-4-oxo-2-phenyl-4H-chromen-6-yl 2-{[(tert-butoxy)carbonyl]amino} propanoate], the melting point worked out at 196.7 °C. Besides, in data set [1], the viability at 6.25 µM was found to be 185%, the viability at 12.5 µM is 166%, the viability at 25 µM worked out at 137% and the viability at 50 µM came to 129%. The compound also displayed an IC50 in data set [1] of over 100 µM. Also, in data set [2], the viability at 3.125 µM stood at 0.35%, the viability at 6.25 µM came to 3.34%, the viability at 12.5 µM came out at 7.09% and the viability at 25 µM is 4.09%. Besides, in data set [2], the viability at 50 µM was 0.1% and the EC50 turned out to be 74.9 µM. For the same compound, the viability at 100 µM in data set [3] is 97.1%.

In general, IC50 refers to the midpoint of a concentration-inhibition curve. The term EC50 denotes the concentration giving half of the maximal effect. Broadly, the melting point is the temperature, or range, at which the solid turns liquid.
